In patent publication US20200397711A1, “MICROPARTICLE COMPOSITIONS FOR TREATMENT OF INFECTION OR DISEASE, METHODS OF MAKING THE SAME, AND METHODS OF TREATING SUBJECTS WITH MICROPARTICLE COMPOSITIONS” (priority 2019, published 2020):

Legend:
[1] = tested on: planktonic and biofilm-associated Listeria monocytogenes and Salmonella typhimurium; conditions: combined with streptomycin; cited from earlier work
[2] = tested on: Pseudomonas aeruginosa, Staphylococcus aureus and Candida albicans; assay: Antimicrobial efficacy of liposome-encapsulated silver and tea tree oil; type: cell-based; conditions: singly and in combination, in a controlled release liposomal carrier system
From the text: The aspects, advantages and/or other features of example embodiments of the present disclosure will become apparent to those skilled in the art, in view of the present detailed description. It should be apparent to those skilled in the art that the described embodiments of the present disclosure provided herein are merely exemplary and illustrative and not limiting. Numerous embodiments of modifications thereof are contemplated as falling within the scope of the present disclosure and equivalents thereto. Unless otherwise noted, technical terms are used according to conventional usage. Any publications mentioned in this specification are indicative of the level of those skilled in the art to which the invention pertains and are incorporated by reference in their entirety. […]

[3] = tested on: biofilms of K. pneumoniae; conditions: cited from earlier work

| Compound | interaction with streptomycin [1] | also measured |
| --- | --- | --- |
| COc1ccc2cc3[n+](cc2c1OC)CCc1cc2c(cc1-3)OCO2 [berberine] | synergistic effect | – |
| O=CC=Cc1ccccc1 [cinnamaldehyde] | synergistic effect | – |
| silver | – | antimicrobial efficacy and effective concentration required [2]: can improve their antimicrobial efficacy as well as reduce the effective concentration required |
| Cc1ccc(C(C)C)c(O)c1 [thymol] | synergistic effect | – |
| C=CCc1ccc(O)c(OC)c1 [eugenol] | synergistic effect | – |
| O=C(O)c1cn(C2CC2)c2cc(N3CCNCC3)c(F)cc2c1=O [ciprofloxacin] | – | inhibition/eradication of biofilms [3]: inhibit/eradicate biofilms |
